{
  "source": "patent US11598051B2",
  "about": "“Method for manufacturing a fibrous web” (Kemira Oyj, priority 2017, dated 2023)",
  "key": {"[1]": {"system": "Total aerobic bacteria (authentic bacterial population of a broke sample)", "experiment": "Example 1 laboratory broke test: total aerobic bacteria by agar plate cultivation", "assay_type": "cell-based", "details": "for Total aerobic bacteria: 10 mg/l as total active chlorine, +45° C.", "method": "(§1) This laboratory test compared efficacy of two oxidizing biocides, namely free active chlorine and stabilized active chlorine, in killing of vegetative bacterial cells and in controlling of bacterial spore formation. Test was performed with authentic bacterial population of a broke sample taken from couch pit of a board machine making 3-ply food-packaging board. Broke sample was divided in equal proportions. Two reference samples were stored as such, the “free active chlorine” sample was treated with sodium hypochlorite, and the “stabilized active chlorine” sample was treated with sodium hypochlorite stabilized by 5,5-dimethylhydantoin (mixed in 1:1 molar ratio to form monochloro-5,5-dimethylhydantoin, MCDMH). Both forms of active chlorine were dosed at 10 ppm (=mg/l as total active chlorine Cl2). Broke samples were stored at +45° C. without mixing. Total aerobic bacteria and aerobic bacterial spores were quantified by using conventional agar plate cultivation methods (Plate Count Agar, incubation at +37° C. for 2 days) at the beginning of the test (untreated reference samples) and after 1 and 2 days of contact time. Broke pH and Redox (mV) values were also monitored."}, "aerobic bacterial spores [2]": {"system": "aerobic bacterial spores", "experiment": "Example 1 laboratory broke test: aerobic bacterial spores by agar plate cultivation", "assay_type": "cell-based, bacteria", "details": "for Bacterial spores: 10 mg/l as total active chlorine, +45° C.", "method": "as §1"}, "aerobic bacterial spores [3]": {"system": "aerobic bacterial spores", "experiment": "Example 3 board machine biocide programs: aerobic bacterial spores from process locations", "set-up": "species or system bacteria", "details": "for ΔSpore content within the broke system: difference between inlet and outlet", "text": "(§2) This example compares technical performance of two different biocide programs in the broke system of a 3-ply board machine producing food-packaging board. Broke system is a part of the wet-end of the board making process. This board machine has set a hygiene target for the final board that it should contain aerobic bacterial spores less than 1000 CFU, and preferably less than 250 CFU, per gram of dry board.\n(§3) In this experiment, for the first period (Days 1-10) the machine was running a biocide program consisting of stabilized active chlorine (MCDMH) and glutaraldehyde. For the second period, the machine was running chlorine dioxide, a non-stabilized oxidizer, as the biocide. It was running for 10 days starting from a shutdown (Days 15-25). Third period (Days 26-47) was run with the same MCDMH and glutaraldehyde program as the first period. During this experiment technical performance of the two different biocide programs was monitored at selected dates by several means: on-line Redox monitoring system collecting Redox values at every 10 minutes (results are shown as daily average mV values); measuring aerobic spore content of the final board samples; and by measuring aerobic bacterial spore quantities from different process locations by using agar plate cultivation methods (pasteurization at 82° C. for 20 min, followed by cultivation on Plate Count Agar for 2 days at +37° C.)."}, "aerobic bacterial spores [4]": {"system": "aerobic bacterial spores", "experiment": "Example 3 board machine biocide programs: aerobic spore content of final board", "set-up": "species or system bacteria", "text": "as §2, §3"}, "aerobic spores": {"system": "aerobic spores", "experiment": "Example 2 laboratory broke storage test: aerobic spore content by agar plate cultivation", "assay_type": "cell-based, bacteria", "method": "(§4) This laboratory test was performed with broke sample taken from an alkaline board machine producing 3-ply food-packaging board and the sample included the mill's authentic bacterial population in it. The sample was divided in two different containers, one stored as such and the second one amended with biocide, 50 mg/l of glutaraldehyde as active agent. Containers were closed and stored at +45° C. without mixing i.e. under conditions that simulate situation in broke storage tower during a machine shutdown. Total aerobic bacteria and aerobic spore contents were determined by using conventional agar plate cultivation methods (plate count agar, 2 days incubation at +37° C.) at the beginning of the test and after 3 days of storage time, along with pH and redox measurements."}, "[5]": {"system": "Total aerobic bacteria (mill's authentic bacterial population)", "experiment": "Example 2 laboratory broke storage test: total aerobic bacteria by agar plate cultivation", "assay_type": "cell-based", "method": "as §4"}, "[6]": {"details": "Day 15, second period (Days 15-25)"}, "[7]": {"details": "Day 19, second period (Days 15-25)"}, "[8]": {"details": "Day 25, second period (Days 15-25)"}, "[9]": {"details": "broke, 50 mg/l as active agent, +45° C., closed, after 3 days storage time"}},
  "data": [
    {"compound": "[Na+].[O-]Cl", "note": "[Na-hypochlorite, sodium hypochlorite]", "values": [
      {"measurement": "Total aerobic bacteria", "setting": "[1]; broke, 1 days storage time", "value": "4 × 10^5 CFU/ml"},
      {"measurement": "Total aerobic bacteria", "setting": "[1]; broke, 2 days storage time", "value": "2 × 10^7 CFU/ml"},
      {"measurement": "killing effect", "setting": "[1]; broke, 10 ppm dosing level", "value": "did not demonstrate any longer-term killing effect"},
      {"measurement": "total aerobic bacteria content", "setting": "[1]; broke, 10 ppm, after 1 day of storage", "value": "4×10^5 CPU/ml"},
      {"measurement": "Bacterial spores", "setting": "aerobic bacterial spores [2]; 1 days storage time", "value": 60, "unit": "CFU/ml"},
      {"measurement": "Bacterial spores", "setting": "aerobic bacterial spores [2]; 2 days storage time", "value": 670, "unit": "CFU/ml"},
      {"measurement": "increase in the quantity of aerobic spores", "setting": "aerobic bacterial spores [2]; 10 ppm, 1 day to 2 days storage (60 to 670 CFU/ml)", "value": 10, "unit": "fold"}
    ]},
    {"compound": "CC1(C)NC(=O)N(Cl)C1=O", "note": "[MCDMH, monochloro-5,5-dimethylhydantoin]", "values": [
      {"measurement": "stronger reduction of total aerobic bacteria content compared to free chlorine", "setting": "[1]; 10 mg/l as active chlorine, after 1 day of storage", "value": 1, "unit": "log unit"},
      {"measurement": "Total aerobic bacteria", "setting": "[1]; broke, 1 days storage time", "value": "6×10^4 CFU/ml"},
      {"measurement": "Total aerobic bacteria", "setting": "[1]; broke, 2 days storage time", "value": "2 × 10^7 CFU/ml"},
      {"measurement": "spore formation in the broke", "setting": "aerobic bacterial spores [2]; 10 mg/l as active chlorine, 2 days experiment", "value": "did not cause any new spore formation"},
      {"measurement": "spore counts", "setting": "aerobic bacterial spores [2]; 10 mg/l as active chlorine, during the 2 days experiment", "value": "30-60 CPU/ml"},
      {"measurement": "Bacterial spores", "setting": "aerobic bacterial spores [2]; 1 days storage time", "value": 30, "unit": "CFU/ml"},
      {"measurement": "Bacterial spores", "setting": "aerobic bacterial spores [2]; 2 days storage time", "value": 60, "unit": "CFU/ml"},
      {"measurement": "spores in incoming pulp", "setting": "aerobic bacterial spores [3]; first period (Days 1-10)", "value": "30-80 CFU/ml"},
      {"measurement": "spores in pulp transportation water", "setting": "aerobic bacterial spores [3]; first period (Days 1-10)", "value": 15, "unit": "CFU/ml"}
    ]},
    {"compound": "[O][Cl+][O-]", "note": "[chlorine dioxide]", "values": [
      {"measurement": "Bacterial Spores in Final Board", "setting": "aerobic bacterial spores [4]; [6]", "value": 520, "unit": "CFU/g"},
      {"measurement": "Bacterial Spores in Final Board", "setting": "aerobic bacterial spores [4]; [7]", "value": 5530, "unit": "CFU/g"},
      {"measurement": "Bacterial Spores in Final Board", "setting": "aerobic bacterial spores [4]; Day 21, second period (Days 15-25)", "value": 9580, "unit": "CFU/g"},
      {"measurement": "Bacterial Spores in Final Board", "setting": "aerobic bacterial spores [4]; [8]", "value": 3210, "unit": "CFU/g"},
      {"measurement": "spore content in the final board, highest value", "setting": "aerobic bacterial spores [4]; second period (Days 15-25)", "value": "≤ 9580", "unit": "CFU/g"},
      {"measurement": "Aerobic Bacterial Spores in process, High consistency (4-6 w/w-%) broke tower", "setting": "aerobic bacterial spores [3]; [6]", "value": 440, "unit": "CFU/ml"},
      {"measurement": "Aerobic Bacterial Spores in process, Incoming Pulp", "setting": "aerobic bacterial spores [3]; [6]", "value": 20, "unit": "CFU/ml"},
      {"measurement": "Aerobic Bacterial Spores in process, Low consistency (1-4 w/w-%) broke tower", "setting": "aerobic bacterial spores [3]; [6]", "value": 250, "unit": "CFU/ml"},
      {"measurement": "ΔSpore content within the broke system", "setting": "aerobic bacterial spores [3]; Day 15, second period", "value": "+190 CFU/ml"},
      {"measurement": "Aerobic Bacterial Spores in process, High consistency (4-6 w/w-%) broke tower", "setting": "aerobic bacterial spores [3]; [7]", "value": 1100, "unit": "CFU/ml"},
      {"measurement": "Aerobic Bacterial Spores in process, Incoming Pulp", "setting": "aerobic bacterial spores [3]; [7]", "value": 60, "unit": "CFU/ml"},
      {"measurement": "Aerobic Bacterial Spores in process, Low consistency (1-4 w/w-%) broke tower", "setting": "aerobic bacterial spores [3]; [7]", "value": 610, "unit": "CFU/ml"},
      {"measurement": "ΔSpore content within the broke system", "setting": "aerobic bacterial spores [3]; Day 19, second period", "value": "+490 CFU/ml"},
      {"measurement": "Aerobic Bacterial Spores in process, High consistency (4-6 w/w-%) broke tower", "setting": "aerobic bacterial spores [3]; [8]", "value": 950, "unit": "CFU/ml"},
      {"measurement": "Aerobic Bacterial Spores in process, Low consistency (1-4 w/w-%) broke tower", "setting": "aerobic bacterial spores [3]; [8]", "value": 850, "unit": "CFU/ml"},
      {"measurement": "ΔSpore content within the broke system", "setting": "aerobic bacterial spores [3]; Day 25, second period", "value": "+100 CFU/ml"},
      {"measurement": "spore formation in the broke system", "setting": "aerobic bacterial spores [3]; second period (Days 15-25)", "value": "triggered intensive spore formation"},
      {"measurement": "spore quantities in the high consistency broke tower", "setting": "aerobic bacterial spores [3]; second period (Days 15-25), maximum", "value": "up to 1100 CFU/ml"}
    ]},
    {"compound": "O=CCCCC=O", "note": "[glutaraldehyde]", "values": [
      {"measurement": "spore formation in the broke sample", "setting": "aerobic spores; 50 mg/l, 3 days of storage", "value": "not triggering any spore formation"},
      {"measurement": "Bacterial spores", "setting": "aerobic spores; [9]", "value": 80, "unit": "CFU/ml"},
      {"measurement": "killing effect", "setting": "[5]; 50 mg/l, 3 days of storage", "value": "did not have a long-lasting killing effect"},
      {"measurement": "total aerobic bacteria relative to the untreated reference", "setting": "[5]; 50 mg/l, after 3 days of storage", "value": 40, "unit": "%"},
      {"measurement": "Total aerobic bacteria", "setting": "[5]; [9]", "value": "2×10^7 CFU/ml"}
    ]}
  ]
}
